Patent US12006321B2, “Substituted pyrazolo[1,5-a]pyrimidines as apelin receptor agonists” (Sanford Burnham Prebys Medical Discovery Institute, priority 2017, dated 2024)

The molecules below were run against T1, human apelin receptor (APJ, APLNR) (Homo sapiens, UniProt P35414) (assay: cell-based cAMP assay (TR-FRET) in Chinese hamster ovary cells expressing the apelin receptor). Settings: EC50 = 50% of control (apelin-13, 1 nM) response; cAMP in CHO cells, 0.5 h incubation; read-out: Potency Category.
T1 construct: host or cells: Chinese hamster ovary (CHO) cells, stably integrated receptor
T1 sequence (P35414 1-380): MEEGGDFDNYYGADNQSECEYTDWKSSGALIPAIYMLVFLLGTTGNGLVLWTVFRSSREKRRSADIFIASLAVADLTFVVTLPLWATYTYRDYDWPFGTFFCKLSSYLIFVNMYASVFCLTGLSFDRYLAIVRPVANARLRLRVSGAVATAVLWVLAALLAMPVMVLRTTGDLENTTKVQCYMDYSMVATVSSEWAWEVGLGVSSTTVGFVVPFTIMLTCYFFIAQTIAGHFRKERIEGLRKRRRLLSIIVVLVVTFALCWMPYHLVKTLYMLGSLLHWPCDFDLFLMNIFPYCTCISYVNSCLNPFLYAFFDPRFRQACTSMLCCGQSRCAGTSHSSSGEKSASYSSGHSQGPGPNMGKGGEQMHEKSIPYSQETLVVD
Procedure, shortened: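 CHO cells stably expressing human APJ were forskolin-stimulated, then exposed to compound (0.0-100 μM, ≤1% DMSO) for 0.5 h. Lysate cAMP read by competitive TR-FRET immunoassay; EC50 and efficacy expressed relative to 1 nM apelin-13, four-parameter fit over ≥10 concentrations.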

| SMILES | EC50 [nM] |
| --- | --- |
| COc1cc(C(=O)O)nc2c(-c3c(C)cccc3C)c(C)nn12 [Compound 99, 3-(2,6-dimethylphenyl)-7-methoxy-2-methyl-8-hydropyrazolo[1,5-a]pyrimidine-5-carboxylic acid] | > 500 |
| Cc1cccc(C)c1-c1c(C)nn2c(N3CCOCC3)cc(C(=O)O)nc12 [Compound 98, 3-(2,6-dimethylphenyl)-2-methyl-7-morpholin-4-yl-8-hydropyrazolo[1,5-a]pyrimidine-5-carboxylic acid] | > 500 |
| Cc1cccc(F)c1-c1c(C)nn2c(C(C)C)cc(C(=O)O)nc12 [Compound 51, 3-(6-fluoro-2-methylphenyl)-2-methyl-7-(methylethyl)-8-hydropyrazolo[1,5-a]pyrimidine-5-carboxylic acid] | 200 to 500 |
| Cc1nn2c(C(C)C)cc(C(=O)O)nc2c1-c1cccc(Cl)c1 [Compound 32, 3-(3-chlorophenyl)-2-methyl-7-(methylethyl)-8-hydropyrazolo[1,5-a]pyrimidine-5-carboxylic acid] | > 500 |
| Cc1nn2c(C(C)C)cc(C(=O)O)nc2c1-c1cccc(F)c1 [Compound 26, 3-(3-fluorophenyl)-2-methyl-7-(methylethyl)-8-hydropyrazolo[1,5-a]pyrimidine-5-carboxylic acid] | > 500 |
| CNc1cc(C(=O)O)nc2c(-c3c(C)cccc3C)c(C)nn12 [Compound 102, 3-(2,6-dimethylphenyl)-2-methyl-7-(methylamino)-8-hydropyrazolo[1,5-a]pyrimidine-5-carboxylic acid] | > 500 |
| CCc1nn2c(C(C)C)cc(C(=O)O)nc2c1-c1ccccc1 [Compound 13, 2-ethyl-7-(methylethyl)-3-phenyl-8-hydropyrazolo[1,5-a]pyrimidine-5-carboxylic acid] | > 500 |
| CC(=O)Nc1cc(C(C)C)n2nc(C)c(-c3c(C)cccc3C)c2n1 [Compound 111, N-[3-(2,6-dimethylphenyl)-2-methyl-7-(methylethyl)-8-hydropyrazolo[1,5-a]pyrimidin-5-yl]acetamide] | > 500 |
| Cc1cccc(-c2c(C)nn3c(C(C)C)cc(C(=O)O)nc23)c1 [Compound 28, 2-methyl-7-(methylethyl)-3-(3-methylphenyl)-8-hydropyrazolo[1,5-a]pyrimidine-5-carboxylic acid] | > 500 |
| COC(=O)c1cc(Nc2ccc(C(F)(F)F)cc2)n2nc(C)c(-c3c(C)cccc3C)c2n1 [Compound 136, methyl 3-(2,6-dimethylphenyl)-2-methyl-7-{[4-(trifluoromethyl)phenyl]amino}-8-hydropyrazolo[1,5-a]pyrimidine-5-carboxylate] | > 500 |
| COc1cccc(Cl)c1-c1c(C)nn2c(C(C)C)cc(C(=O)O)nc12 [Compound 119, 3-(6-chloro-2-methoxyphenyl)-2-methyl-7-(methylethyl)-8-hydropyrazolo[1,5-a]pyrimidine-5-carboxylic acid] | > 500 |
| Cc1cccc(C)c1-c1c(C)nn2c(Oc3ccccc3)cc(C(=O)O)nc12 [Compound 107, 3-(2,6-dimethylphenyl)-2-methyl-7-phenoxy-8-hydropyrazolo[1,5-a]pyrimidine-5-carboxylic acid] | > 500 |
| CCOC(=O)c1cc(C2CCC2)n2nc(C)c(-c3c(C)cccc3C)c2n1 [Compound 60, ethyl 3-(2,6-dimethylphenyl)-7-cyclobutyl-2-methyl-8-hydropyrazolo[1,5-a]pyrimidine-5-carboxylate] | > 500 |
| Cc1cccc(C)c1-c1c(C)nn2c(N(C)c3ccccc3)cc(C(=O)O)nc12 [Compound 149] | > 500 |
| Cc1cccc(C)c1-c1c(CN(C)C)nn2c(C(C)C)cc(C(=O)O)nc12 [Compound 90, 2-[(dimethylamino)methyl]-3-(2,6-dimethylphenyl)-7-(methylethyl)-8-hydropyrazolo[1,5-a]pyrimidine-5-carboxylic acid] | > 500 |
| CCOC(=O)c1cc(C(C)C)n2nc(C(C)C)c(-c3c(C)cccc3C)c2n1 [Compound 73, ethyl 2,7-bis(methylethyl)-3-(2,6-dimethylphenyl)-8-hydropyrazolo[1,5-a]pyrimidine-5-carboxylate] | > 500 |
| COC(=O)c1cc(N(C)c2ccc(F)cc2)n2nc(C)c(-c3c(C)cccc3C)c2n1 [Compound 148] | > 500 |
| Cc1cccc(C)c1-c1c(C(C)C)nn2c(C(C)C)cc(C(=O)O)nc12 [Compound 80, 2,7-bis(methylethyl)-3-(2,6-dimethylphenyl)-8-hydropyrazolo[1,5-a]pyrimidine-5-carboxylic acid] | > 500 |

| SMILES | EC50 [nM] |
| --- | --- |
| CCOC(=O)c1cc(C(C)C)n2nc(C)c(-c3c(C)cccc3F)c2n1 [Compound 49, ethyl 3-(6-fluoro-2-methylphenyl)-2-methyl-7-(methylethyl)-8-hydropyrazolo[1,5-a]pyrimidine-5-carboxylate] | > 500 |
| Cc1nn2c(C(C)C)cc(C(=O)O)nc2c1-c1ccccc1 [Compound 3, 2-methyl-7-(methylethyl)-3-phenyl-8-hydropyrazolo[1,5-a]pyrimidine-5-carboxylic acid] | > 500 |
| Cc1cccc(C)c1-c1cnn2c(C(C)C)cc(C(=O)O)nc12 [Compound 53, 3-(2,6-dimethylphenyl)-7-(methylethyl)-8-hydropyrazolo[1,5-a]pyrimidine-5-carboxylic acid] | > 500 |
| Cc1cccc(C)c1-c1c(C)nn2c(Nc3ccc(F)cc3)cc(C(=O)O)nc12 [Compound 139, 3-(2,6-dimethylphenyl)-7-[(4-fluorophenyl)amino]-2-methyl-8-hydropyrazolo[1,5-a]pyrimidine-5-carboxylic acid] | > 500 |
| Cc1cccc(C)c1-c1c(C)nn2c(-c3ccncc3)cc(C(=O)O)nc12 [Compound 126, 3-(2,6-dimethylphenyl)-2-methyl-7-(4-pyridyl)-8-hydropyrazolo[1,5-a]pyrimidine-5-carboxylic acid] | > 500 |
| Cc1cccc(C)c1-c1c(C)nn2c(C3=CCCC3)cc(C(=O)O)nc12 [Compound 127, 3-(2,6-dimethylphenyl)-7-cyclopent-1-enyl-2-methyl-8-hydropyrazolo[1,5-a]pyrimidine-5-carboxylic acid] | > 500 |
| CC(C)c1cc(C(=O)O)nc2c3c(nn12)CCCC3 [Compound 43, 4-(methylethyl)-5,7,8,9,10-pentahydro-5H-pyrimidino[1,2-b]indazole-2-carboxylic acid] | > 500 |
| COc1ccc(Nc2cc(C(=O)O)nc3c(-c4c(C)cccc4C)c(C)nn23)cc1 [Compound 142, 3-(2,6-dimethylphenyl)-7-[(4-methoxyphenyl)amino]-2-methyl-8-hydropyrazolo[1,5-a]pyrimidine-5-carboxylic acid] | > 500 |
| Cc1cccc(C)c1-c1c(C)nn2c(C(C)C)cc(C(O)C(F)(F)F)nc12 (centres unmarked) [Compound 63, 1-[3-(2,6-dimethylphenyl)-2-methyl-7-(methylethyl)(8-hydropyrazolo[1,5-a]pyrimidin-5-yl)]-2,2,2-trifluoroethan-1-ol] | > 500 |
| CCOC(=O)c1cc(C(C)C)n2nc(C(=O)N(C)C)c(-c3c(C)cccc3C)c2n1 [Compound 100, ethyl 2-(N,N-dimethylcarbamoyl)-3-(2,6-dimethylphenyl)-7-(methylethyl)-8-hydropyrazolo[1,5-a]pyrimidine-5-carboxylate] | > 500 |
| Cc1cc(Cl)cc(C)c1-c1c(C)nn2c(C(C)C)cc(C(=O)O)nc12 [Compound 70, 3-(4-chloro-2,6-dimethylphenyl)-2-methyl-7-(methylethyl)-8-hydropyrazolo[1,5-a]pyrimidine-5-carboxylic acid] | > 500 |
| Cc1nn2c(C(C)(C)C)cc(C(=O)O)nc2c1-c1ccccc1 [Compound 2, 7-(tert-butyl)-2-methyl-3-phenyl-8-hydropyrazolo[1,5-a]pyrimidine-5-carboxylic acid] | > 500 |
| Cc1cccc(C)c1-c1c(C)nn2c(Nc3ccc(Cl)cc3)cc(C(=O)O)nc12 [Compound 140, 3-(2,6-dimethylphenyl)-7-[(4-chlorophenyl)amino]-2-methyl-8-hydropyrazolo[1,5-a]pyrimidine-5-carboxylic acid] | > 500 |
| Cc1cccc(C)c1-c1c(C)nn2c(N3CCCCC3)cc(C(=O)O)nc12 [Compound 125, 3-(2,6-dimethylphenyl)-2-methyl-7-piperidyl-8-hydropyrazolo[1,5-a]pyrimidine-5-carboxylic acid] | > 500 |
| CCOC(=O)c1cc(C(C)C)n2nc(C)c(-c3c(C)cccc3C(=O)OCC)c2n1 [Compound 67, ethyl 3-[2-(ethoxycarbonyl)-6-methylphenyl]-2-methyl-7-(methylethyl)-8-hydropyrazolo[1,5-a]pyrimidine-5-carboxylate] | > 500 |
| Cc1cccc(C)c1-c1c(C2CC2)nn2c(C(C)C)cc(C(=O)O)nc12 [Compound 84, 3-(2,6-dimethylphenyl)-2-cyclopropyl-7-(methylethyl)-8-hydropyrazolo[1,5-a]pyrimidine-5-carboxylic acid] | > 500 |
| Cc1cccc(C)c1-c1c(C)nn2c(Nc3ccc(C#N)cc3)cc(C(=O)O)nc12 [Compound 145, 3-(2,6-dimethylphenyl)-7-[(4-cyanophenyl)amino]-2-methyl-8-hydropyrazolo[1,5-a]pyrimidine-5-carboxylic acid] | > 500 |
